ChEMBL document CHEMBL3994585, “Synthesis of α-santonin derivatives for diminutive effect on T and B-cell proliferation and their structure activity relationships” (Eur J Med Chem, 2017)

Tests used:
T-cell [1] = assay: Immunosuppressive activity in Balb/c mouse T cells assessed as ConA-induced cell proliferation at 100 uM after 48 hrs by MTT assay relative to control; type: functional
T-cell [2] = assay: Immunosuppressive activity in Balb/c mouse T cells assessed as ConA-induced cell proliferation at 10 uM after 48 hrs by MTT assay relative to control; type: functional
T-cell [3] = assay: Immunosuppressive activity in Balb/c mouse T cells assessed as ConA-induced cell proliferation at 1 uM after 48 hrs by MTT assay relative to control; type: functional
B-cell [4] = assay: Immunosuppressive activity in Balb/c mouse B cells assessed as LPS-induced cell proliferation at 100 uM after 48 hrs by MTT assay relative to control; type: functional
B-cell [5] = assay: Immunosuppressive activity in Balb/c mouse B cells assessed as LPS-induced cell proliferation at 10 uM after 48 hrs by MTT assay relative to control; type: functional
B-cell [6] = assay: Immunosuppressive activity in Balb/c mouse B cells assessed as LPS-induced cell proliferation at 1 uM after 48 hrs by MTT assay relative to control; type: functional
T-cell [7] = assay: Immunostimulant activity in Balb/c mouse T cells assessed as ConA-induced cell proliferation at 100 uM after 48 hrs by MTT assay relative to control; type: ADME, cell-based
T-cell [8] = assay: Immunostimulant activity in Balb/c mouse T cells assessed as ConA-induced cell proliferation at 10 uM after 48 hrs by MTT assay relative to control; type: ADME, cell-based
T-cell [9] = assay: Immunostimulant activity in Balb/c mouse T cells assessed as ConA-induced cell proliferation at 1 uM after 48 hrs by MTT assay relative to control; type: ADME, cell-based
B-cell [10] = assay: Immunostimulant activity in Balb/c mouse B cells assessed as LPS-induced cell proliferation at 10 uM after 48 hrs by MTT assay relative to control; type: ADME, cell-based
B-cell [11] = assay: Immunostimulant activity in Balb/c mouse B cells assessed as LPS-induced cell proliferation at 1 uM after 48 hrs by MTT assay relative to control; type: ADME, cell-based
T-cell [12] = assay: Cytotoxicity against Balb/c mouse T cells assessed as reduction in cell proliferation at 100 uM after 48 hrs by MTT assay; type: cell-based
T-cell [13] = assay: Cytotoxicity against Balb/c mouse T cells assessed as reduction in cell proliferation at 10 uM after 48 hrs by MTT assay; type: cell-based
T-cell [14] = assay: Cytotoxicity against Balb/c mouse T cells assessed as reduction in cell proliferation at 1 uM after 48 hrs by MTT assay; type: cell-based
B-cell [15] = assay: Cytotoxicity against Balb/c mouse B cells assessed as reduction in cell proliferation at 100 uM after 48 hrs by MTT assay; type: cell-based
B-cell [16] = assay: Cytotoxicity against Balb/c mouse B cells assessed as reduction in cell proliferation at 10 uM after 48 hrs by MTT assay; type: cell-based
B-cell [17] = assay: Cytotoxicity against Balb/c mouse B cells assessed as reduction in cell proliferation at 1 uM after 48 hrs by MTT assay; type: cell-based
B-cell [18] = assay: Immunostimulant activity in Balb/c mouse B cells assessed as LPS-induced cell proliferation at 100 uM after 48 hrs by MTT assay relative to control; type: ADME, cell-based

Compound	Activity (T-cell [1]) [%]	Activity (T-cell [2]) [%]	Activity (T-cell [3]) [%]	Activity (B-cell [4]) [%]	Activity (B-cell [5]) [%]	Activity (B-cell [6]) [%]	Activity (T-cell [7]) [%]	Activity (T-cell [8]) [%]	Activity (T-cell [9]) [%]	Activity (B-cell [10]) [%]	Activity (B-cell [11]) [%]	Activity (T-cell [12])	Activity (T-cell [13])	Activity (T-cell [14])	Activity (B-cell [15])	Activity (B-cell [16])	Activity (B-cell [17])	Activity (B-cell [18]) [%]
Cc1cc(OCc2cnnn2-c2ccc(C=O)cc2)c(C)c2c1CC[C@H]1[C@H](C)C(=O)O[C@@H]21	-20.83	-6.66	-5.83	-35	-22.5	-24.16	–	–	–	–	–	–	–	–	–	–	–	–
Cc1cc(OCc2cnnn2-c2ccc3c(c2)OCO3)c(C)c2c1CC[C@H]1[C@H](C)C(=O)O[C@@H]21	-29.47	-45.26	-29.47	-32.63	-50.52	-14.73	–	–	–	–	–	–	–	–	–	–	–	–
Cc1cc(OCc2cnnn2-c2cccc(I)c2)c(C)c2c1CC[C@H]1[C@H](C)C(=O)O[C@@H]21	-3.15	-20	-15.79	-15.79	-20	-15.79	–	–	–	–	–	–	–	–	–	–	–	–
Cc1cc(O)c(C)c2c1CCC(C(C)CO)C2O (stereo unspecified)	–	–	–	-11.96	–	–	6.45	26.34	31.18	8.54	14.52	Toxic	Toxic	Toxic	Toxic	Toxic	Toxic	–
CC(=O)OCC(C)C1CCc2c(C)cc(OC(C)=O)c(C)c2C1O (stereo unspecified)	–	–	–	–	–	–	18.55	17.52	37.11	1.76	2.65	Non-Toxic	Toxic	Toxic	Non-Toxic	Toxic	Toxic	5.3
Cc1cc(O)c(C)c2c1CC[C@@H]([C@@H](C)C(=O)O)C2	–	–	–	–	-1.76	–	1.03	3.09	4.12	–	15.92	Toxic	Toxic	Toxic	Toxic	Toxic	Toxic	20.35
CCOC(=O)[C@H](C)c1ccc2c(C)cc(OC)c(C)c2c1	-5.88	-37.5	-31.61	-25.82	-23.07	-40.1	–	–	–	–	–	Toxic	Toxic	Non-Toxic	Toxic	Toxic	Non-Toxic	–
COc1cccc(NC(=O)[C@H](C)[C@@H]2CCc3c(C)cc(O)c(C)c3C2)c1	-31.86	-12.63	–	-13.93	–	-0.99	–	–	8.79	3.98	–	Non-Toxic	Non-Toxic	Toxic	Non-Toxic	Non-Toxic	Toxic	–
COc1cc(C)c2ccc([C@@H](C)C(=O)O)cc2c1C	–	-25	–	–	–	–	13.07	–	9.52	13.33	86.66	Non-Toxic	Toxic	Toxic	Non-Toxic	Toxic	Toxic	4.76
Cc1cc(O)c(C)c2c1CC[C@@H]([C@@H](C)C(=O)N1CCOCC1)C2	-21.42	–	–	-2.98	–	-4.97	–	12.08	8.79	14.92	–	Non-Toxic	Non-Toxic	Non-Toxic	Non-Toxic	Non-Toxic	Non-Toxic	–
COc1ccc2cc(-n3nncc3COc3cc(C)c4c(c3C)[C@@H]3OC(=O)[C@@H](C)[C@@H]3CC4)ccc2c1	-93.9	-95.12	-93.9	-94.01	-25.64	-36.75	–	–	–	–	–	–	–	–	–	–	–	–
Cc1cc(O)c(C)c2c1CCC1C2OC(O)C1C (stereo unspecified)	–	–	–	-12.38	–	–	16.49	16.49	31.95	9.73	13.27	Toxic	Toxic	Toxic	Toxic	Toxic	Toxic	–
CCOC(=O)[C@H](C)c1ccc2c(C)cc(O)c(C=O)c2c1	–	–	–	-2.65	-5.3	–	24.74	49.48	34.02	–	14.15	Toxic	Toxic	Toxic	Toxic	Toxic	Toxic	–
Cc1ccc(I)cc1-n1nncc1COc1cc(C)c2c(c1C)[C@@H]1OC(=O)[C@@H](C)[C@@H]1CC2	-23.15	-26.31	-13.68	-16.84	-14.73	-34.73	–	–	–	–	–	–	–	–	–	–	–	–
Cc1c(N)c(O)c(C)c2c1CC[C@H]1[C@H](C)C(=O)O[C@@H]21	–	–	–	-16.66	–	–	5.91	36.02	13.97	33.33	17.52	Toxic	Toxic	Toxic	Toxic	Toxic	Toxic	–
CC1=C(Cl)C=C[C@]2(C)CC[C@@H]3C(=C12)OC(=O)[C@H]3C	–	–	-5.15	-4.42	–	-8.84	9.27	16.49	–	7.96	–	Toxic	Toxic	Toxic	Toxic	Toxic	Toxic	–
CC(=O)Nc1ccc(-n2nncc2COc2cc(C)c3c(c2C)[C@@H]2OC(=O)[C@@H](C)[C@@H]2CC3)cc1	-6.31	-29.47	-28.42	-8.42	-36.84	-44.21	–	–	–	–	–	–	–	–	–	–	–	–
Cc1cc(O)c(C)c2c1CC[C@@H]([C@@H](C)C(=O)Nc1nccc(C)c1[N+](=O)[O-])C2	-26.37	–	–	-2.98	–	–	–	42.85	24.72	64.67	28.35	Non-Toxic	Toxic	Toxic	Non-Toxic	Toxic	Toxic	–
COc1cc(-n2nncc2COc2cc(C)c3c(c2C)[C@@H]2OC(=O)[C@@H](C)[C@@H]2CC3)cc(OC)c1OC	-16.84	-14.73	-20	-14.73	-26.31	-16.84	–	–	–	–	–	–	–	–	–	–	–	–
Cc1cc(OCc2cnnn2/C=C/c2ccccc2)c(C)c2c1CC[C@H]1[C@H](C)C(=O)O[C@@H]21	-95.12	-95.12	-95.12	–	-7.69	–	–	–	–	–	36.75	–	–	–	–	–	–	48.71
CCOC(=O)[C@H](C)c1ccc2c(C)cc(O)c(C)c2c1	–	–	–	-6.41	–	-3.84	5.91	39.78	15.59	23.5	–	Toxic	Toxic	Toxic	Toxic	Toxic	Toxic	–
Cc1ccc(NC(=O)[C@H](C)[C@@H]2CCc3c(C)cc(O)c(C)c3C2)cc1O	–	–	–	-29.35	–	–	9.89	3.84	11.53	11.44	6.96	Non-Toxic	Non-Toxic	Non-Toxic	Non-Toxic	Non-Toxic	Non-Toxic	–
